Test results from US20070110833A1, “Composition comprising the alcohol compound isolated from the extract of cucurbitaceae family plant having anti-adipogenic and anti-obesity activity” (priority 2003, published 2007).

Test system: 3T3-L1 cell
Assay: Inhibition of adipocyte (3T3-L1) differentiation and triglyceride accumulation, Oil Red O staining
Assay type: cell-based
Protocol: Adipocyte cell (3T3-L1) purchased from ATCC (American Tissue Culture Collection, USA) was cultured in RPMI medium containing 10% FBS and MDI cocktail (isobutylmethylxanthine, dexamethasone, insulin) was added thereto for differentiating into mature adipocytes cell. After two days, the medium was replaced and treated with only insulin. Thereafter, the medium was replaced and equal concentration of insulin was treated again every other day. MDI ranging from 2.5 to 1000 ug/ml of the concentration was treated when the adipocytes differentiation was induced and equal concentration of the MDI was treated at every replacement of the medium.
After eight days lapsed, the accumulated fat within differentiated cell was stained with Oil Red O staining reagent and the absorbance was determined with optical density qualitatively. The inhibition percentage (%) was calculated by following Empirical formula 1. The Inhibition Percentage (%)=[O.D. of test group]/[O.D. value of Control group]×100 [Empirical Formula 1]

## C[S+]([O-])c1ccc(-c2nc(-c3ccncc3)c(-c3ccc(F)cc3)[nH]2)cc1 (centres unmarked) [SB203580]
Experimental Example 1-3, cmc-9 and controls, FIG. 5
  adipocyte differentiation and triglyceride accumulation: the triglyceride was not formed
MDI-induced differentiation, 8 days, extracts 1 mg/ml, SB203580 10 uM, FIGS. 1 and 2
  level of produced triglycerides in differentiated 3T3-L1 cells (Oil Red O): the triglyceride was not produced
